This passage reports IC50 results from patent US10227357B2, “Compounds and methods for kinase modulation, and indications therefor” (Plexxikon Inc., priority 2012, dated 2019).

One test has as its target T1, c-kit kinase (Homo sapiens, UniProt P10721).
T1 construct: The c-kit (or kinase domain thereof) is an active kinase in AlphaScreen; poly-Histidine tag (in-house protein only) (cleaved yes); host or cells: E. coli BL21(DE3)RIL, co-expressed with PTP1B
In words: c-Kit biochemical assay, AlphaScreen, 10 μM ATP. The settings on record: c-kit biochemical inhibitory activity; read-out: Biochemical activity (IC50 μM) Kit. The method in brief: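 His-tagged c-Kit expressed in E. coli with co-expressed PTP1B (dephosphorylated), tag removed; 0.1 ng per reaction with biotinylated-peptide substrate in 50 mM HEPES pH 7.2, 5 mM MgCl2, 5 mM MnCl2, 5% DMSO, 10 μM ATP, 1 h at room temperature. Phosphorylation detected by AlphaScreen (streptavidin donor, PY20 acceptor beads); IC50 from 8-point 1:3 dilution series.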
For orientation: Alpha assays give light when donor and acceptor beads are brought close together.

A further test concerns the target T2, c-kit mutant D816V (Homo sapiens, UniProt P10721, D816V/DEL694-753).
T2 construct: residues 551-934, kinase insertion domain residues 694-753 deleted; 6x-histidine (N); made in house; host or cells: E. coli Arctic Express (DE3) RIL (Stratagene)
The test is described as follows: c-Kit mutant D816V biochemical assay, AlphaScreen. The following applies: c-kit D816V biochemical inhibitory activity; read-out: Biochemical activity (IC50 μM) Kit D816V. The procedure, abridged: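 Eight-point, threefold compound series incubated 30 min at room temperature with E. coli-produced D816V kinase, 10 μM ATP, Mg2+/Mn2+ HEPES buffer pH 7.2 and 5% DMSO. After EDTA stop, streptavidin and anti-phosphotyrosine (PY20) AlphaScreen beads gave the read-out, and IC50 was fitted from the concentration–signal curve.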

T1 sequence (P10721 26-976): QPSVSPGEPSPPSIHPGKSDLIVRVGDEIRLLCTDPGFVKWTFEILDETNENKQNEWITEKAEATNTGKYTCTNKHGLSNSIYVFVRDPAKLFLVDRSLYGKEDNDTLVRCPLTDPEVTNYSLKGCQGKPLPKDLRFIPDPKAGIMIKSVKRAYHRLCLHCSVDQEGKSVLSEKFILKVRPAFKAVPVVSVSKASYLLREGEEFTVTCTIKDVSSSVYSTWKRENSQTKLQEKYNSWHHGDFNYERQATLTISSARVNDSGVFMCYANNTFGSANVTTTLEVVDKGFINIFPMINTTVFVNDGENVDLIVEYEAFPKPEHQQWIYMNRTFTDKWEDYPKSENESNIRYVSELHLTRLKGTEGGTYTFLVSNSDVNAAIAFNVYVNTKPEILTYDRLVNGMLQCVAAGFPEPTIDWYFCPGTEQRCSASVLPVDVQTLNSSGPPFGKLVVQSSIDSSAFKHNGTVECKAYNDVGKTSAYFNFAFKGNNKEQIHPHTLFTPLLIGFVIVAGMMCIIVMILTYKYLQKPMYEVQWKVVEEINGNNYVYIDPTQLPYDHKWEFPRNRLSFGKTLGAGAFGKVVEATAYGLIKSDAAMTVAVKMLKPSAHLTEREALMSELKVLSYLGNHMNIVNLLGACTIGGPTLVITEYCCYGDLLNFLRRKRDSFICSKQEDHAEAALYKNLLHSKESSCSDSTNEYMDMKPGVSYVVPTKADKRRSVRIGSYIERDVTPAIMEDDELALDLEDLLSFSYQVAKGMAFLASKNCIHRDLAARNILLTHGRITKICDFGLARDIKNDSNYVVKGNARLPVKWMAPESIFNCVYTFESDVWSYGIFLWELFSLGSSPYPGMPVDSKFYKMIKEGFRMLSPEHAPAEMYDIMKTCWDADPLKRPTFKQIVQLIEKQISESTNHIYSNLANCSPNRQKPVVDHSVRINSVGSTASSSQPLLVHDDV
T2 sequence (P10721 with tags, fused parts or gaps DEL694-753/D816V): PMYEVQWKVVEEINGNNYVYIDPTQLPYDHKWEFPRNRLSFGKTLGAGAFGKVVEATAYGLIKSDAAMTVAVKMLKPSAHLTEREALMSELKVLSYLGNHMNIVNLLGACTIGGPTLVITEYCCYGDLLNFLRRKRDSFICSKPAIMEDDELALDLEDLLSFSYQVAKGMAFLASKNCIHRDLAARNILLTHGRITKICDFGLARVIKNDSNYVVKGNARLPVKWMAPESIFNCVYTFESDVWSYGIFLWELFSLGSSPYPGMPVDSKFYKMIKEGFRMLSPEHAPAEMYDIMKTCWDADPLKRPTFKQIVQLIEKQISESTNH

On to `C[C@H](NC(=O)N1CCN(c2ncnc3[nH]c(-c4ccc(C#N)cc4)cc23)CC1)c1cccc(Cl)c1` [P-0697, N-[(1S)-1-(3-chlorophenyl)ethyl]-4-[6-(4-cyanophenyl)-7H-pyrrolo[2,3-d]pyrimidin-4-yl]piperazine-1-carboxamide], for which the IC50 at c-kit kinase lay within 1 to 10 µM; at c-kit mutant D816V, 0.0001 to 1 µM.

Turning to `C[C@H](NC(=O)N1CCN(c2ncnc3[nH]c(-c4ccc(F)cc4)cc23)CC1(C)C)c1ccc(Cl)cc1` [P-0700, N-[(1S)-1-(4-chlorophenyl)ethyl]-4-[6-(4-fluorophenyl)-7H-pyrrolo[2,3-d]pyrimidin-4-yl]-2,2-dimethyl-piperazine-1-carboxamide], the IC50 at c-kit kinase was 1 to 10 µM; on c-kit mutant D816V it was 0.0001 to 1 µM.

For the compound `O=C(NCc1cccs1)N1CCN(c2ncnc3cc(-c4ccc(F)cc4)sc23)CC1` [P-0709, 4-[6-(4-fluorophenyl)thieno[3,2-d]pyrimidin-4-yl]-N-(2-thienylmethyl)piperazine-1-carboxamide], the IC50 fell in the range of 10 to 200 µM on c-kit kinase and 0.0001 to 1 µM on c-kit mutant D816V.

In the case of `COc1cc(-c2cc3c(N4CCN(C(=O)N[C@@H](C)c5ccc(Cl)cc5)C(C)(C)C4)ncnc3[nH]2)ccn1` [P-0710, N-[(1S)-1-(4-chlorophenyl)ethyl]-4-[6-(2-methoxy-4-pyridyl)-7H-pyrrolo[2,3-d]pyrimidin-4-yl]-2,2-dimethyl-piperazine-1-carboxamide], the IC50 at c-kit kinase fell in the range of 10 to 200 µM; on c-kit mutant D816V, 0.0001 to 1 µM.

For the compound `Cc1ccc([C@H](C)NC(=O)N2CCN(c3ncnc4[nH]c(-c5ccc(F)cc5)cc34)C[C@H]2C)cc1` [P-0712, (2R)-4-[6-(4-fluorophenyl)-7H-pyrrolo[2,3-d]pyrimidin-4-yl]-2-methyl-N-[(1S)-1-(p-tolyl)ethyl]piperazine-1-carboxamide], the figures for the IC50 at c-kit kinase and at c-kit mutant D816V were 10 to 200 µM and 0.0001 to 1 µM, respectively.

For `CCOc1cccc(-c2[nH]c(C3CCN(c4ncnc5[nH]c(-c6ccnc(OC)c6)cc45)CC3)nc2C)c1` [P-0714, 4-[4-[5-(3-ethoxyphenyl)-4-methyl-1H-imidazol-2-yl]-1-piperidyl]-6-(2-methoxy-4-pyridyl)-7H-pyrrolo[2,3-d]pyrimidine], the IC50 lay within 10 to 200 µM on c-kit kinase and 0.0001 to 1 µM on c-kit mutant D816V.

For the compound `Cc1nn(C)cc1-c1cc2c(N3CCN(C(=O)N[C@@H](C)c4ccc(F)cc4)[C@H](C)C3)ncnc2[nH]1` [P-0715, (2R)-4-[6-(1,3-dimethylpyrazol-4-yl)-7H-pyrrolo[2,3-d]pyrimidin-4-yl]-N-[(1S)-1-(4-fluorophenyl)ethyl]-2-methyl-piperazine-1-carboxamide], the values for the IC50 at c-kit kinase and at c-kit mutant D816V were 1 to 10 µM and 0.0001 to 1 µM, respectively.

For the compound `Cc1nn(C)cc1-c1cc2c(N3CCN(C(=O)N[C@@H](C)c4ccc(Cl)cc4)CC3)ncnc2[nH]1` [P-0716, N-[(1S)-1-(4-chlorophenyl)ethyl]-4-[6-(1,3-dimethylpyrazol-4-yl)-7H-pyrrolo[2,3-d]pyrimidin-4-yl]piperazine-1-carboxamide], the IC50 lay in the range of 10 to 200 µM on c-kit kinase and 0.0001 to 1 µM at c-kit mutant D816V.

With `C[C@H](NC(=O)N1CCN(c2ncnc3[nH]c(-c4cnn(C)c4)cc23)C[C@H]1C)c1ccc(Cl)cc1` [P-0717, (2R)-N-[(1S)-1-(4-chlorophenyl)ethyl]-2-methyl-4-[6-(1-methylpyrazol-4-yl)-7H-pyrrolo[2,3-d]pyrimidin-4-yl]piperazine-1-carboxamide], the IC50 on c-kit kinase was in the range of 1 to 10 µM; at c-kit mutant D816V, 0.0001 to 1 µM.

Consider `Cc1nn(C)cc1-c1cc2c(N3CCN(C(=O)N[C@@H](C)c4ccc(Cl)cc4)[C@H](C)C3)ncnc2[nH]1` [P-0718, (2R)-N-[(1S)-1-(4-chlorophenyl)ethyl]-4-[6-(1,3-dimethylpyrazol-4-yl)-7H-pyrrolo[2,3-d]pyrimidin-4-yl]-2-methyl-piperazine-1-carboxamide], for which the IC50 on c-kit kinase and on c-kit mutant D816V was 0.0001 to 1 µM each time.

With `Cc1ccc([C@H](C)NC(=O)N2CCN(c3ncnc4[nH]c(-c5ccc(F)cc5)cc34)CC2(C)C)cc1` [P-0719, 4-[6-(4-fluorophenyl)-7H-pyrrolo[2,3-d]pyrimidin-4-yl]-2,2-dimethyl-N-[(1S)-1-(p-tolyl)ethyl]piperazine-1-carboxamide], the IC50 on c-kit kinase and on c-kit mutant D816V was 0.0001 to 1 µM each time.

For `C[C@H](NC(=O)N1CCN(c2ncnc3[nH]c(-c4cnn(C)c4)cc23)CC1(C)C)c1ccc(F)cc1` [P-0720, N-[(1S)-1-(4-fluorophenyl)ethyl]-2,2-dimethyl-4-[6-(1-methylpyrazol-4-yl)-7H-pyrrolo[2,3-d]pyrimidin-4-yl]piperazine-1-carboxamide], the IC50 at c-kit kinase and on c-kit mutant D816V was 0.0001 to 1 µM throughout.

With `Cc1nn(C)cc1-c1cc2c(N3CCN(C(=O)N[C@@H](C)c4ccc(F)cc4)C(C)(C)C3)ncnc2[nH]1` [P-0721, 4-[6-(1,3-dimethylpyrazol-4-yl)-7H-pyrrolo[2,3-d]pyrimidin-4-yl]-N-[(1S)-1-(4-fluorophenyl)ethyl]-2,2-dimethyl-piperazine-1-carboxamide], the IC50 at c-kit kinase and at c-kit mutant D816V was 0.0001 to 1 µM throughout.

Consider `C[C@H](NC(=O)N1CCN(c2ncnc3[nH]c(-c4cnn(C)c4)cc23)CC1(C)C)c1ccc(Cl)cc1` [P-0722, N-[(1S)-1-(4-chlorophenyl)ethyl]-2,2-dimethyl-4-[6-(1-methylpyrazol-4-yl)-7H-pyrrolo[2,3-d]pyrimidin-4-yl]piperazine-1-carboxamide], for which the IC50 on c-kit kinase and at c-kit mutant D816V was 0.0001 to 1 µM in each case.

As to `Cc1nn(C)cc1-c1cc2c(N3CCN(C(=O)N[C@@H](C)c4ccc(Cl)cc4)C(C)(C)C3)ncnc2[nH]1` [P-0723, N-[(1S)-1-(4-chlorophenyl)ethyl]-4-[6-(1,3-dimethylpyrazol-4-yl)-7H-pyrrolo[2,3-d]pyrimidin-4-yl]-2,2-dimethyl-piperazine-1-carboxamide], the IC50 at c-kit kinase and at c-kit mutant D816V was 0.0001 to 1 µM each time.

In the case of `Cc1nn(C)cc1-c1cc2c(N3CCN(C(=O)N[C@@H](C)c4ccc(F)cc4)CC3)ncnc2[nH]1` [P-0724, 4-[6-(1,3-dimethylpyrazol-4-yl)-7H-pyrrolo[2,3-d]pyrimidin-4-yl]-N-[(1S)-1-(4-fluorophenyl)ethyl]piperazine-1-carboxamide], the IC50 on c-kit kinase and on c-kit mutant D816V was 0.0001 to 1 µM each time.

Regarding `C[C@H](NC(=O)N1CCN(c2ncnc3[nH]c(-c4cnn(C)c4)cc23)C[C@H]1C)c1ccc(F)cc1` [P-0725, (2R)-N-[(1S)-1-(4-fluorophenyl)ethyl]-2-methyl-4-[6-(1-methylpyrazol-4-yl)-7H-pyrrolo[2,3-d]pyrimidin-4-yl]piperazine-1-carboxamide], the IC50 at c-kit kinase and at c-kit mutant D816V was 0.0001 to 1 µM throughout.

As to `CCc1ccc(S(=O)(=O)NC2CCN(c3ncnc4[nH]c(-c5cn(C)nc5C)cc34)CC2)cc1` [P-0726, N-[1-[6-(1,3-dimethylpyrazol-4-yl)-7H-pyrrolo[2,3-d]pyrimidin-4-yl]-4-piperidyl]-4-ethyl-benzenesulfonamide], the IC50 at c-kit kinase and on c-kit mutant D816V was 0.0001 to 1 µM each time.

Turning to `CCc1ccc(S(=O)(=O)NC2CCN(c3ncnc4[nH]c(-c5ccnc(OC)c5)cc34)CC2)cc1` [P-0727, 4-ethyl-N-[1-[6-(2-methoxy-4-pyridyl)-7H-pyrrolo[2,3-d]pyrimidin-4-yl]-4-piperidyl]benzenesulfonamide], the IC50 on c-kit kinase and at c-kit mutant D816V was 0.0001 to 1 µM throughout.

The IC50 is the midpoint of a concentration-inhibition curve.
